Test results: ChEMBL document CHEMBL1122946, “Folate antagonists. 21. Synthesis and antimalarial properties of 2,4-diamino-6-(benzylamino)pyrido[3,2-d]pyrimidines” (1985)

What was measured:
Mus musculus [1] = experiment: Mean survival time against trophozoite induced Plasmodium berghei in mice minus control was evaluated at a dose 640 mg/kg.; assay type: functional
Mus musculus [2] = experiment: Mean survival time against trophozoite induced Plasmodium berghei in mice minus control was evaluated at a dose 160 mg/kg; assay type: functional
Mus musculus [3] = experiment: Mean survival time against trophozoite induced Plasmodium berghei in mice minus control was evaluated at a dose 40 mg/kg; assay type: functional
Mus musculus [4] = experiment: Mean survival time against trophozoite induced Plasmodium berghei in mice minus control was evaluated at a dose 160 mg/kg.; assay type: functional
Mus musculus [5] = experiment: Mean survival time against trophozoite induced Plasmodium berghei in mice minus control was evaluated at a dose 40 mg/kg.; assay type: functional
Mus musculus [6] = experiment: Mean survival time against trophozoite induced Plasmodium berghei in mice minus control was evaluated at a dose 320 mg/kg; 5 survived out of 10 animals at 60 days postinjection.; assay type: functional, organism-based; design: dose 320 mg/kg
Mus musculus [7] = experiment: Mean survival time against trophozoite induced Plasmodium berghei in mice minus control was evaluated at a dose 640 mg/kg; 10 survived out of 10 animals at 60 days postinjection.; assay type: functional, organism-based; design: dose 640 mg/kg
Mus musculus [8] = experiment: Mean survival time against trophozoite induced Plasmodium berghei in mice minus control was evaluated at a dose 1.25 mg/kg.; assay type: functional
Mus musculus [9] = experiment: Mean survival time against trophozoite induced Plasmodium berghei in mice minus control was evaluated at a dose 40 mg/kg; 6 survived out of 15 animals at 60 days postinjection.; assay type: functional, organism-based; design: dose 40 mg/kg
Mus musculus [10] = experiment: Mean survival time against trophozoite induced Plasmodium berghei in mice minus control was evaluated at a dose 160 mg/kg; 10 survived out of 10 animals at 60 days postinjection.; assay type: functional, organism-based; design: dose 160 mg/kg
Mus musculus [11] = experiment: Mean survival time against trophozoite induced Plasmodium berghei in mice minus control was evaluated at a dose 2.5 mg/kg.; assay type: functional
Mus musculus [12] = experiment: Mean survival time against trophozoite induced Plasmodium berghei in mice minus control was evaluated at a dose 5 mg/kg.; assay type: functional
Mus musculus [13] = experiment: Mean survival time against trophozoite induced Plasmodium berghei in mice minus control was evaluated at a dose 10 mg/kg.; assay type: functional
Mus musculus [14] = experiment: Mean survival time against trophozoite induced Plasmodium berghei in mice minus control was evaluated at a dose 80 mg/kg; 5 survived out of 5 animals at 60 days postinjection.; assay type: functional, organism-based; design: dose 80 mg/kg
Mus musculus [15] = experiment: Mean survival time against trophozoite induced Plasmodium berghei in mice minus control was evaluated at a dose 20 mg/kg; 4 survived out of 10 animals at 60 days postinjection.; assay type: functional, organism-based; design: dose 20 mg/kg
Mus musculus [16] = experiment: Mean survival time against trophozoite induced Plasmodium berghei in mice minus control was evaluated at a dose 320 mg/kg; 5 survived out of 5 animals at 60 days postinjection.; assay type: functional, organism-based; design: dose 320 mg/kg
Mus musculus [17] = experiment: Mean survival time against trophozoite induced Plasmodium berghei in mice minus control was evaluated at a dose 640 mg/kg; 5 survived out of 5 animals at 60 days postinjection.; assay type: functional, organism-based; design: dose 640 mg/kg
Mus musculus [18] = experiment: Mean survival time against trophozoite induced Plasmodium berghei in mice minus control was evaluated at a dose 160 mg/kg; 5 survived out of 5 animals at 60 days postinjection.; assay type: functional, organism-based; design: dose 160 mg/kg
Mus musculus [19] = experiment: Mean survival time against trophozoite induced Plasmodium berghei in mice minus control was evaluated at a dose 40 mg/kg; 5 survived out of 5 animals at 60 days postinjection.; assay type: functional, organism-based; design: dose 40 mg/kg
Mus musculus [20] = experiment: Mean survival time against trophozoite induced Plasmodium berghei in mice minus control was evaluated at a dose 20 mg/kg; 3 survived out of 5 animals at 60 days postinjection; assay type: functional, organism-based; design: dose 20 mg/kg
Mus musculus [21] = experiment: Mean survival time against trophozoite induced Plasmodium berghei in mice minus control was evaluated at a dose 20 mg/kg; 8 survived out of 15 animals at 60 days postinjection.; assay type: functional, organism-based; design: dose 20 mg/kg
Mus musculus [22] = experiment: Mean survival time against trophozoite induced Plasmodium berghei in mice minus control was evaluated at a dose 320 mg/kg; 10 survived out of 10 animals at 60 days postinjection.; assay type: functional, organism-based; design: dose 320 mg/kg
Mus musculus [23] = experiment: Mean survival time against trophozoite induced Plasmodium berghei in mice minus control was evaluated at a dose 40 mg/kg; 15 survived out of 15 animals at 60 days postinjection.; assay type: functional, organism-based; design: dose 40 mg/kg
Mus musculus [24] = experiment: Mean survival time against trophozoite induced Plasmodium berghei in mice minus control was evaluated at a dose 80 mg/kg; 10 survived out of 10 animals at 60 days postinjection.; assay type: functional, organism-based; design: dose 80 mg/kg
Mus musculus [25] = experiment: Mean survival time against trophozoite induced Plasmodium berghei in mice minus control was evaluated at a dose 320 mg/kg.; assay type: functional
Mus musculus [26] = experiment: Mean survival time against trophozoite induced Plasmodium berghei in mice minus control was evaluated at a dose 40 mg/kg; 8 survived out of 10 animals at 60 days postinjection.; assay type: functional, organism-based; design: dose 40 mg/kg
Mus musculus [27] = experiment: Mean survival time against trophozoite induced Plasmodium berghei in mice minus control was evaluated at a dose 80 mg/kg; 4 survived out of 5 animals at 60 days postinjection.; assay type: functional, organism-based; design: dose 80 mg/kg
Mus musculus [28] = experiment: Mean survival time against trophozoite induced Plasmodium berghei in mice minus control was evaluated at a dose 20 mg/kg.; assay type: functional
Mus musculus [29] = experiment: Mean survival time against trophozoite induced Plasmodium berghei in mice minus control was evaluated at a dose 160 mg/kg; 1 survived out of 5 animals at 60 days postinjection.; assay type: functional, organism-based; design: dose 160 mg/kg
Mus musculus [30] = experiment: Mean survival time against trophozoite induced Plasmodium berghei in mice minus control was evaluated at a dose 80 mg/kg.; assay type: functional
Mus musculus [31] = experiment: Mean survival time against trophozoite induced Plasmodium berghei in mice minus control was evaluated at a dose 640 mg/kg; 7 survived out of 10 animals at 60 days postinjection.; assay type: functional, organism-based; design: dose 640 mg/kg
Mus musculus [32] = experiment: Mean survival time against trophozoite induced Plasmodium berghei in mice minus control was evaluated at a dose 80 mg/kg; 5 survived out of 5 animals at 60 days postinjection; assay type: functional, organism-based; design: dose 80 mg/kg
Mus musculus [33] = experiment: Mean survival time against trophozoite induced Plasmodium berghei in mice minus control was evaluated at a dose 40 mg/kg; 4 survived out of 10 animals at 60 days postinjection; assay type: functional, organism-based; design: dose 40 mg/kg
Mus musculus [34] = experiment: Mean survival time against trophozoite induced Plasmodium berghei in mice minus control was evaluated at a dose 160 mg/kg; 2 toxic death occurred out of 10 animals on days 2-5 after injection; assay type: functional, organism-based; design: dose 160 mg/kg
Mus musculus [35] = experiment: Mean survival time against trophozoite induced Plasmodium berghei in mice minus control was evaluated at a dose 640 mg/kg; 10 toxic death occurred out of 10 animals on days 2-5 after injection; assay type: functional, organism-based; design: dose 640 mg/kg
Mus musculus [36] = experiment: Mean survival time against trophozoite induced Plasmodium berghei in mice minus control was evaluated at a dose 320 mg/kg; 3 toxic death occurred out of 5 animals on days 2-5 after injection; assay type: functional, organism-based; design: dose 320 mg/kg

## CN(Cc1ccc(Cl)cc1)c1ccc2nc(N)nc(N)c2n1
Mus musculus [1]
  Delta MST: 1.3 days
Mus musculus [2]
  Delta MST: 1.1 days
Mus musculus [3]
  Delta MST: 1.1 days

## CCN(Cc1ccc(Cl)cc1)c1ccc2nc(N)nc(N)c2n1
Mus musculus [1]
  Delta MST: 1.1 days
Mus musculus [4]
  Delta MST: 0.9 days
Mus musculus [5]
  Delta MST: 0.9 days

## Nc1nc(N)c2nc(N(C=O)Cc3ccc(Cl)c(Cl)c3)ccc2n1
Mus musculus [6]
  Delta MST: Survivals 5/10
Mus musculus [7]
  Delta MST: Survivals 10/10
Mus musculus [8]
  Delta MST: 1.9 days
Mus musculus [9]
  Delta MST: Survivals 6/15
Mus musculus [10]
  Delta MST: Survivals 10/10
Mus musculus [11]
  Delta MST: 5.3 days
Mus musculus [12]
  Delta MST: 14.1 days
Mus musculus [13]
  Delta MST: 16.3 days
Mus musculus [14]
  Delta MST: Survivals 5/5
Mus musculus [15]
  Delta MST: Survivals 4/10

## CN(Cc1cccc(Cl)c1)c1ccc2nc(N)nc(N)c2n1
Mus musculus [16]
  Delta MST: Survivals 5/5
Mus musculus [17]
  Delta MST: Survivals 5/5
Mus musculus [18]
  Delta MST: Survivals 5/5
Mus musculus [19]
  Delta MST: Survivals 5/5
Mus musculus [14]
  Delta MST: Survivals 5/5
Mus musculus [20]
  Delta MST: Survivals 3/5

## CN(Cc1ccc(Cl)c(Cl)c1)c1ccc2nc(N)nc(N)c2c1
Mus musculus [21]
  Delta MST: Survivals 8/15
Mus musculus [17]
  Delta MST: Survivals 5/5
Mus musculus [10]
  Delta MST: Survivals 10/10
Mus musculus [22]
  Delta MST: Survivals 10/10
Mus musculus [13]
  Delta MST: 8.7 days
Mus musculus [23]
  Delta MST: Survivals 15/15
Mus musculus [24]
  Delta MST: Survivals 10/10

## CN(Cc1ccc(C(F)(F)F)cc1)c1ccc2nc(N)nc(N)c2n1
Mus musculus [1]
  Delta MST: 2.5 days
Mus musculus [25]
  Delta MST: 2.9 days
Mus musculus [26]
  Delta MST: Survivals 8/10
Mus musculus [27]
  Delta MST: Survivals 4/5
Mus musculus [28]
  Delta MST: 8.1 days
Mus musculus [29]
  Delta MST: Survivals 1/5

## Nc1nc(N)c2nc(NCc3ccc(Cl)c(Cl)c3)ccc2n1
Mus musculus [4]
  Delta MST: 12.4 days
Mus musculus [25]
  Delta MST: 15.3 days
Mus musculus [5]
  Delta MST: 1.8 days
Mus musculus [30]
  Delta MST: 4.9 days
Mus musculus [31]
  Delta MST: Survivals 7/10
Mus musculus [28]
  Delta MST: 0.5 days

## CC(c1ccc(Cl)c(Cl)c1)N(C)c1ccc2nc(N)nc(N)c2n1 (stereo not given)
Mus musculus [1]
  Delta MST: 3.9 days
Mus musculus [4]
  Delta MST: 2.3 days
Mus musculus [5]
  Delta MST: 1.7 days

## CCN(Cc1ccccc1)c1ccc2nc(N)nc(N)c2n1
Mus musculus [32]
  Delta MST: Survivals 5/5
Mus musculus [33]
  Delta MST: Survivals 4/10
Mus musculus [34]
  Delta MST: Toxic Deaths 2/10
Mus musculus [28]
  Delta MST: 9.7 days
Mus musculus [35]
  Delta MST: Toxic Deaths 10/10
Mus musculus [36]
  Delta MST: Toxic Deaths 3/5
